Values of other authors in US10172810B2 (priority 2003, dated 2019).

Conditions: pH 6.8

CN1CCCC1c1cccnc1 (stereo not shown) [nicotine]
nicotine in the free base form: about 10%
